According to patent US11155576B2, “Synthetic peptides, enzymatic formation of pericellular hydrogels/nanofibrils, and methods of use” (BRANDEIS UNIVERSITY, priority 2014, dated 2021):

How the values were obtained:
[1] = test system: HeLa cells; assay: Confocal microscopy, Congo red/DAPI staining, HeLa; type: cell-based, human; conditions: 280 μM, 12 hours
Procedure: (§1) Cells in exponential growth phase were seeded in a glass bottomed culture chamber at 2×10^4 cells/well. Cells were allowed to attach for 24 hours at 37° C., 5% CO2. The culture medium was removed, and replaced with culture medium containing D-2a at 280 μM. Following 12 hours of incubation, cells were washed 3 times with PBS prior to being stained with 0.1 mg/mL Congo red and 0.6 μM DAPI in PBS buffer (30 minutes at 37° C. in the dark). Next, cells were rinsed three times with PBS, and then kept in PBS for imaging.
Pericellular nanofibrils and cellular nuclei can be visualized using Congo red and DAPI, respectively (Kapuscinski, Biotech. Histochem. 70:220-233 (1995); Binder et al., Angew. Chem. Int. Ed. 45:7324-7328 (2006), each of which is hereby incorporated by reference in its entirety).

[2] = test system: Ect1/E6E7 cells; assay: Confocal microscopy, Congo red/DAPI staining, Ect1/E6E7; type: cell-based, human; conditions: 560 μM, 12 hours
Procedure: as §1, with “The culture medium was removed, and replaced with culture medium containing D-2a at 280 μM.” left out
(§2) Ect1/E6E7 cells (immortalized normal human cervical epithelial cells, which have same tissue and organ origins as HeLa cells) were treated with the same procedure as described for HeLa cells above. […] The difference of hydrogel/nanonets formation by D-2a conversion to D-2b on HeLa cells and Ect1/E6E7 cells agrees with the notion that HeLa cells have higher levels of phosphatase activity than Ect1/E6E7 cells (FIG. 9).

[3] = test system: Ect1/E6E7 cells; assay: Pericellular hydrogelation on Ect1/E6E7 cells; type: cell-based, human; conditions: 560 μM, prolonged incubation time of 48 hours
Procedure: An 11.2 mM (8.09 mg/mL) stock solution of D-2a was prepared in ddH2O. The pH was adjusted to 7.4 using 1N NaOH. 2×10^5 cells in exponential growth phase were seeded in 35 mm Petri dish with 1 mL complete culture medium. Following overnight incubation, the medium was replaced with 1 mL of medium containing D-2a (diluted from the stock solution immediately prior to use). Petri dishes were incubated at 37° C. for two hours. Next, dishes were removed from the incubator and titled on a bench to visualize the pericellular hydrogel. Prior to co-incubation with phosphatase inhibitors, cells were washed three times with medium containing Pierce phosphatase inhibitor cocktail (Thermo) (contains sodium floride, sodium orthovanadate, sodium pyrophosphate, and beta-glycerophosphate). Next, 1 mL of medium containing both the inhibitor cocktail and D-2a was applied to the cells.
as §2

[4] = test system: HeLa cells; assay: Viability of cells after cold shock and nanonet collection; type: cell-based, human; conditions: 4 hour incubation with D-2a in FBS-free MEM, cold shock and medium removal
Procedure: FIGS. 33A-33B show the cell compatibility of the use of nanonets/hydrogel for collecting cancer secretome. FIG. 33A is a Western blot showing the amount of tubulins in CM collected after 24 hours of incubation or pericellular nanonets collected after 3 to 9 hours of incubation. […] Both CM and nanonets were collected in FBS-free MEM. […] Two trials, each has three repeats.
In another experiment the viability of cells following nanonet collection was evaluated following 4 hour incubation with D-2a and cold shock.

[5] = test system: Alkaline-phosphatase (“ALP”); conditions: D-2a 0.20 wt %/2.77 mM
From the text: […] Scale bar=100 nm.
Napthalene capped tripeptide precursor molecule D-2a and hydrogelator molecule D-2b, synthesized according to Yang et al. (Small 3:558-562 (2007), which is hereby incorporated by reference in its entirety), are comprised of the tripeptide D-Phe-D-Phe-D-Tyr (FIG. 1B). The D-Tyr of D-2a is phosphorylated (FIG. 1B).

## O=C(Cc1ccc2ccccc2c1)N[C@H](Cc1ccccc1)C(=O)N[C@H](Cc1ccccc1)C(=O)N[C@H](Cc1ccc(OP(=O)(O)O)cc1)C(=O)O [D-2a, Nap-D-Phe-D-Phe-D-Tyr(PO3H2)]
[1]
  Congo red fluorescence on cells: fluorescence (red) that outlines the cell shape
  DAPI entry into cells: DAPI is unable to enter
[2]
  Congo red fluorescence on cells: hardly display any red fluorescence
  DAPI entry into cells: DAPI stains the nuclei
[3]
  Hydrogel formation on Ect1/E6E7 cells: hydrogels hardly form
[4]
  Cell viability after nanonet collection: hardly affected cell viability
[5]
  Hydrogel formation after ALP-catalyzed dephosphorylation: self assembles to form the nanofibrils of a hydrogel
